Data set [1] relates to tumors. Description: The above tests repeated on probes of examples 2-5 (targeted fluorescence imaging of tumors). The note with it: in vivo. The text has this: (§1) The inventors conducted the above test to the fluorescent probes prepared in examples 2-5.
Data set [2] in a line: Absorption and fluorescence spectra of probes (optical properties). It is filed as physicochemical. The note with it: for Fluorescence quantum yield: ICG in DMSO as standard.
Data set [3] has as its target T1, PSMA (Homo sapiens, UniProt Q04609).
T1 construct: highly expressed PSMA in prostate cancer; endogenous in cells
Description: PSMA-targeted prostate cancer fluorescence imaging. The note with it: in vivo.
Excerpt: as §1

Data set [4] deals with 4T1 mouse breast cancer lung metastasis. The note with it: 2 nmol intravenous, 4 h. The text has this: (§2) This test example studied the imaging manifestations of PEG-Cy7-RP-RGD in different tumor models. A U87 human glioma mouse in-situ model, an SKOV3 human ovarian cancer in-situ model, a 4T1 mouse breast cancer lung metastasis model and an MB-49 human bladder cancer lung metastasis model were respectively set up.
(§3) A 4T1 mouse breast cancer lung metastasis model and an MB-49 mouse bladder cancer lung metastasis model were respectively set up in FIG. 11.

For data set [5], the system named is MB-49 human bladder cancer lung metastasis. The conditions noted are these: 2 nmol intravenous, 4 h.
Excerpt: as §2, §3

Data set [6] concerns U87 human glioma. The note with it: 2 nmol intravenous, 4 h.
Excerpt: as §2

For data set [7], the system named is MB-49 human bladder cancer cells. Description: Fluorescence imaging in mouse subcutaneous tumor model of MB-49 bladder cancer cells. It is filed as in vivo, Balb/c nude mouse. As to the method:
A mouse subcutaneous tumor model of human bladder cancer cells was set up by injecting MB-49 human bladder cancer cells in Balb/c nude mouse legs. After the tumor grew to a proper size, four fluorescent probes were respectively intravenously injected (2 nmol of probe was injected for each mouse), and then fluorescence imaging was performed on mice at different time points after injection.

The subject of data set [8] is SKOV3 human ovarian cancer. The note with it: 2 nmol intravenous, 4 h.
Excerpt: as §2
A […] human ovarian cancer mouse in-situ tumor model was set up in FIG. 10.

Structures are written as SMILES.

T1 sequence (Q04609 whole entry, species assumed): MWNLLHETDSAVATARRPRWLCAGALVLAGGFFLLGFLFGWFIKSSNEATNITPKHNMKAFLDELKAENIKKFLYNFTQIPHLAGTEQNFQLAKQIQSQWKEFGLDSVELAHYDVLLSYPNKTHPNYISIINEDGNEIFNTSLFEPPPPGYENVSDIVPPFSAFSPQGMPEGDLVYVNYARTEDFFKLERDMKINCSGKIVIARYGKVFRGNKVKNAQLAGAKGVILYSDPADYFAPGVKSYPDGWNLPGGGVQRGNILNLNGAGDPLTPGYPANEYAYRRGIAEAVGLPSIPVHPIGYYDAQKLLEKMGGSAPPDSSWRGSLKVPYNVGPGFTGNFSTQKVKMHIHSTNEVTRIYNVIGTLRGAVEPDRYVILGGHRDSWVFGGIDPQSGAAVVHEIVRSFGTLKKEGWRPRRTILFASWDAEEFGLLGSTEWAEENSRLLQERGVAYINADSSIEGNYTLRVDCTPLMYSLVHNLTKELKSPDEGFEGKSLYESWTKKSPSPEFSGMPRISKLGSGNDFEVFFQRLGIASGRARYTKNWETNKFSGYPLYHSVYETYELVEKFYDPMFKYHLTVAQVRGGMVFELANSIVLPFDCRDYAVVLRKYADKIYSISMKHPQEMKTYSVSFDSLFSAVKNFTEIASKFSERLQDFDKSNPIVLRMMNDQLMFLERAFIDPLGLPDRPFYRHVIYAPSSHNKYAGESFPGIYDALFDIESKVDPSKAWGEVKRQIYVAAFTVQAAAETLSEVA

On to `COCCOCCOCCN1/C(=C/C=C2\CCCC(/C=C/c3[se]c4cc(S(=O)(=O)O)ccc4[n+]3CCOCCOCCOC)=C2c2ccc(CCC(=O)N[C@@H](CCNC(=N)N)C(=O)NCCOCCOCCOCCOCCC(=O)NCCCCC3NC(=O)[C@@H](Cc4ccc(O)cc4)NC(=O)[C@H](CC(=O)O)NC(=O)CNC(=O)[C@H](CCCNC(=N)N)NC3=O)cc2)[Se]c2cc(S(=O)(=O)O)ccc21` (stereo partly drawn) [example 3], for which the “Usability for targeted fluorescence imaging of tumors” value in data set [1] was “can be used for targeted fluorescence imaging of tumors”. Further, in data set [2], the “Fluorescence property compared to example 1” value is given as “comparable to that in example 1”.

Consider `COCCOCCOCCN1/C(=C/C=C2\CCCC(/C=C/C3=[N+](CCOCCOCCOC)c4ccc(S(=O)(=O)O)cc4C3(C)C)=C2Oc2ccc(CCC(=O)O)cc2)C(C)(C)c2cc(S(=O)(=O)[O-])ccc21` [PEG-Cy7-COOH], for which, in data set [2] (PBS), the “Fluorescent brightness compared with PEG-Cy7-Cl” value is reported as “doubled” and the “Increase of fluorescence quantum yield compared with PEG-Cy7-Cl” value is 3.7%. For the same compound, in data set [2] (PBS buffer (pH = 7.4)), the Absorption peak is listed as 772 nm, the Emission peak turned out to be 794 nm, the “Luminance (molar extinction coefficient × fluorescence quantum yield)” value (from here on “Luminance”) was 19800 and the Molar extinction coefficient came out at 228000 M⁻¹ cm⁻¹. In data set [2] (PBS buffer (pH = 7.4)), the Stokes shift turned out to be 22 nm and the Fluorescence quantum yield is listed as 8.7%.

Turning to `COCCOCCOCCN1/C(=C/C=C2\CCCC(/C=C/C3=[N+](CCOCCOCCOC)c4ccc(S(=O)(=O)O)cc4C3(C)C)=C2Oc2ccc(CCC(=O)N[C@@H](CCCNC(=N)N)C(=O)NCCOCCOCCOCCOCCC(=O)NCCCC[C@H](NC(=O)NC(CCC(=O)O)C(=O)O)C(=O)O)cc2)C(C)(C)c2cc(S(=O)(=O)[O-])ccc21` (stereo partly drawn) [example 5], in data set [3], the “Binding to PSMA in prostate cancer” value was “can bind to highly expressed PSMA in prostate cancer” and the “Prostate cancer-specific fluorescence imaging” value was “achieving prostate cancer-specific fluorescence imaging”.

On to `COCCOCCOCCN1/C(=C/C=C2\CCCC(/C=C/C3=[N+](CCOCCOCCOC)c4ccc(S(=O)(=O)O)cc4C3(C)C)=C2Oc2ccc(CCC(=O)N[C@@H](CCCNC(=N)N)C(=O)NCCOCCOCCOCCOCCC(=O)NCCCCC3NC(=O)[C@@H](Cc4ccc(O)cc4)NC(=O)[C@H](CC(=O)O)NC(=O)CNC(=O)[C@H](CCCNC(=N)N)NC3=O)cc2)C(C)(C)c2cc(S(=O)(=O)[O-])ccc21` (stereo partly drawn) [PEG-Cy7-RP-RGD], for which, in data set [4], the “Fluorescence signal at tumor site” value is “strong fluorescence signal” and the “Signal-to-noise ratio of small lung metastasis lesion” value is reported as “about 4”. Moreover, in data set [5], the “Fluorescence signal at tumor site” value was “strong fluorescence signal” and the “Signal-to-noise ratio of small lung metastasis lesion” value is recorded as “about 4”. Further, in data set [6], the “Fluorescence signal at tumor site” value is listed as “strong fluorescence signal”. Also, in data set [6] (head skin cut), the “Signal-to-noise ratio at tumor site” value is recorded as “up to 6.3”. In addition, the “TBR (tumor signal-to-noise ratio) relative to the other three probes” value in data set [7] (24 h after intravenous injection, 2 nmol per mouse) is recorded as “twice or more”. The “Tissue background (non-specific) signal in normal tissue” value in data set [7] (in vivo imaging) was “ultra-low”. In addition, the “Tumor signal-to-noise ratio (TBR), compared with the other probes” value in data set [7] (intravenous, 2 nmol per mouse) is “obviously improved”. Moreover, in data set [2] (100% Fetal bovine serum), the Absorption peak was found to be 777 nm, the Emission peak amounted to 795 nm, the “Luminance” value came out at 20700 and the Molar extinction coefficient came out at 184000 M⁻¹ cm⁻¹. In data set [2] (100% Fetal bovine serum), the Stokes shift is given as 18 nm and the Fluorescence quantum yield was determined as 11.2%. Besides, the “Change of fluorescence property in 100% fetal bovine serum versus PBS” value in data set [2] (100% fetal bovine serum vs PBS) is recorded as “did not obviously change”. Moreover, in data set [2] (PBS buffer (pH = 7.4)), the Absorption peak came to 776 nm, the Emission peak amounted to 794 nm, the “Luminance” value stood at 19300 and the Molar extinction coefficient stood at 174000 M⁻¹ cm⁻¹. In data set [2] (PBS buffer (pH = 7.4)), the Stokes shift turned out to be 18 nm and the Fluorescence quantum yield worked out at 11.1%. For the same compound, in data set [8], the “Fluorescence signal at tumor site” value was “strong fluorescence signal” and the “Signal-to-noise ratio at ovarian tumor site” value was “about 4.0”.

Values taken from patent publication US20250041459A1, “Polyethylene Glycol Modified Zwitterionic Fluorescent Probe and Application Thereof, and Preparation” (Beijing Sonophotonano Medical Technology Company Limited, priority 2022, published 2025).
